Results from ChEMBL document CHEMBL1201862, “PubChem BioAssay data set” (2004).
Calls of active or inactive are those of the source.

Assays:
Cytochrome P450 2C9 = Cytochrome P450 2C9 (Homo sapiens, UniProt P11712)
Cytochrome P450 2D6 = Cytochrome P450 2D6 (Homo sapiens, UniProt P10635);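 also: CYP2D6 member of a cytochrome P450 panel assay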
Cytochrome P450 3A4 = Cytochrome P450 3A4 (Homo sapiens, UniProt P08684);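 also: CYP3A4 tested as one member of a cytochrome P450 panel screen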
[1] = biological target: T1, Heat shock factor protein 1 (Mus musculus, UniProt P38532); experiment: HSF1 potentiators in luciferase reporter cells, confirmation, cell-based, NIH3T3, luminescence, dose retest (AID 435004); type: functional;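 also: stress induced by proteasome inhibitor MG132 added 30 min after compound; luciferase reporter driven by HSF1 response element in NIH3T3 cells; actives raise luminescence as potentiators of the MG132 stress response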
T1 sequence (P38532 whole entry): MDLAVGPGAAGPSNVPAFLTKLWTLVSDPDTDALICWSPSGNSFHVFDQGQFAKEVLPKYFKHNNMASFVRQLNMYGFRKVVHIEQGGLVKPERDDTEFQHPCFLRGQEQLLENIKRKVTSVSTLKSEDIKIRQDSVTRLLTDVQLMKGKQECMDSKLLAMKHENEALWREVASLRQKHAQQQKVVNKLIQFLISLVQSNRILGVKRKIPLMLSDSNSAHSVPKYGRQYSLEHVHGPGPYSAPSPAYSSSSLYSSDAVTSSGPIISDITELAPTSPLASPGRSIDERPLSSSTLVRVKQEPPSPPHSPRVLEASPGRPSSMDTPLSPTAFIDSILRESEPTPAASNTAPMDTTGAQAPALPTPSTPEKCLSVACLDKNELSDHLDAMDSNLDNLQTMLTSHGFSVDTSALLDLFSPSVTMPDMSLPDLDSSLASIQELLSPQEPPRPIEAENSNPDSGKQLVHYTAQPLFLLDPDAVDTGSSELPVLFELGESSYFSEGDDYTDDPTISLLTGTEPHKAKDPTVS

[2] = Luminescence Cell-Based Dose Retest to Confirm Inhibitors of Cancer Stem Cells. [Related pubchem assays (depositor defined):AID2717, AID2721]; type: functional; settings: Homo sapiens
[3] = growth suppression of PTEN-null colon cells, dose response, cell-based, HCT116 PTEN knockout (AID 1047); type: functional;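 also: HCT116 colon tumor cells with PTEN knocked out; cells exposed to compound for 60 hours before readout; potency for loss of cell viability measured by luminescence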
[4] = inhibitors of intracellular T. cruzi replication, confirmation, NIH3T3 host cells, beta-gal luminescence (AID 2044); type: functional, cell-based;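 also: intracellular parasites grown in NIH/3T3 mouse fibroblasts as host cells; luminescent beta-galactosidase reporter signal from transgenic T. cruzi replicating inside host cells; inhibitors lower the luminescence signal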
[5] = growth suppression of beta-catenin-knockout colon cells, dose response, cell-based, HCT116, human colon tumor (AID 1045); type: functional;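 also: HCT116 colon tumor cells with beta catenin knocked out; cells exposed to compound for 60 hours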
[6] = cytotoxicity toward NIH3T3 fibroblasts, dose response, counter-screen, cell-based, ATP luminescence, mouse fibroblasts (AID 2010); type: functional;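 also: cells exposed to compound for about 90 hours before reading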
Protein RecA = biological target: T2, Protein RecA (Mycobacterium tuberculosis, UniProt P9WHJ3); experiment: Fluorescence Cell-Free Homogeneous Dose Retest to Identify Inhibitors of RecA-Intein Splicing Activity. [Related pubchem assays (depositor defined):AID2097, AID2223, AID489010, AID492950]; type: functional
T2 sequence (P9WHJ3 whole entry): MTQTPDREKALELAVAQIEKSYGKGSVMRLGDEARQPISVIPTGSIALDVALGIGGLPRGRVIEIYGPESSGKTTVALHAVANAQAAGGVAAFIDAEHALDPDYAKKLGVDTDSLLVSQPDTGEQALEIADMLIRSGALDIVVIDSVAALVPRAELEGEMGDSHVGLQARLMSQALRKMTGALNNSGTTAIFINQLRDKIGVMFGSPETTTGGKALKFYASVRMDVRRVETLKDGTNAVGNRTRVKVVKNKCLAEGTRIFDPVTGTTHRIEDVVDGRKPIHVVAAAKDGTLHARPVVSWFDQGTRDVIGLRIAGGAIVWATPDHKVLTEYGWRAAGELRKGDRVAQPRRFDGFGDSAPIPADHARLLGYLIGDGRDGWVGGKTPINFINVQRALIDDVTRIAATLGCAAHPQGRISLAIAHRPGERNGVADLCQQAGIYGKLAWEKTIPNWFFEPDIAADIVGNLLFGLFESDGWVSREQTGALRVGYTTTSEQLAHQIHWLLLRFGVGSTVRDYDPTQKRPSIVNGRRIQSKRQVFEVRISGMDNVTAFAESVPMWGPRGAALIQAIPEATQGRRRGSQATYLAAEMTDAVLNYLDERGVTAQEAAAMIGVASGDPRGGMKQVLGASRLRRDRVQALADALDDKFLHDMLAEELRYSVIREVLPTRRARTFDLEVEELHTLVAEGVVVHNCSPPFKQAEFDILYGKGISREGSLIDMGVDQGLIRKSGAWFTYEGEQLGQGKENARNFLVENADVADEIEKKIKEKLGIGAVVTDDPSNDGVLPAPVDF

[7] = biological target: T3, Replicative DNA helicase DnaB (Mycobacterium tuberculosis, UniProt P9WMR3); experiment: DnaB intein splicing inhibitors, dose response, biochemical, cell-free fluorescence (AID 449749); type: functional
T3 sequence (P9WMR3 whole entry): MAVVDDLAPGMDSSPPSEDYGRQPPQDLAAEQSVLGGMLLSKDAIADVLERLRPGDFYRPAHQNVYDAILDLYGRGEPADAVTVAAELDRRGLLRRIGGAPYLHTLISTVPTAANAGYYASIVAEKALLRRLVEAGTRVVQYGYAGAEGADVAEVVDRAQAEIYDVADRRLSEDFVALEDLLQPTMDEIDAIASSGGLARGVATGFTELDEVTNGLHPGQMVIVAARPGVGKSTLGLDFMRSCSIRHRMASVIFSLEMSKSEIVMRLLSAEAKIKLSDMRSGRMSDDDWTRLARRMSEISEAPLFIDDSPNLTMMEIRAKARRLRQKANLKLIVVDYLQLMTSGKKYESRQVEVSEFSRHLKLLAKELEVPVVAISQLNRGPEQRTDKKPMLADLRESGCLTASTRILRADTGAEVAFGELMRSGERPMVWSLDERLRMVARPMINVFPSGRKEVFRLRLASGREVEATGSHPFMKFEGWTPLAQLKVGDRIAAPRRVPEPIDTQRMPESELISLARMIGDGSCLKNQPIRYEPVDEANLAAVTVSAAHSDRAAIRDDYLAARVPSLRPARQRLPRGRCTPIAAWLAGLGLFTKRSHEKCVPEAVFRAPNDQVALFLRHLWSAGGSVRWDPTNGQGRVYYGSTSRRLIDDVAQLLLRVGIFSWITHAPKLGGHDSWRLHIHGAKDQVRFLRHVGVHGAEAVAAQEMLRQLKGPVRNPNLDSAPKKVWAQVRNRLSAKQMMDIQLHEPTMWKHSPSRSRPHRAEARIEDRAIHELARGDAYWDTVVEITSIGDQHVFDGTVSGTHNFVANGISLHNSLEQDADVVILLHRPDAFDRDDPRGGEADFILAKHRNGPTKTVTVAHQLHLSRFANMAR

[8] = biological target: T4, Zinc finger protein mex-5 (Caenorhabditis elegans, UniProt Q9XUB2); experiment: MEX-5/TCR-2 RNA interaction inhibitors, dose response, biochemical, C. elegans, fluorescence polarization (AID 1960)
T4 sequence (Q9XUB2 whole entry): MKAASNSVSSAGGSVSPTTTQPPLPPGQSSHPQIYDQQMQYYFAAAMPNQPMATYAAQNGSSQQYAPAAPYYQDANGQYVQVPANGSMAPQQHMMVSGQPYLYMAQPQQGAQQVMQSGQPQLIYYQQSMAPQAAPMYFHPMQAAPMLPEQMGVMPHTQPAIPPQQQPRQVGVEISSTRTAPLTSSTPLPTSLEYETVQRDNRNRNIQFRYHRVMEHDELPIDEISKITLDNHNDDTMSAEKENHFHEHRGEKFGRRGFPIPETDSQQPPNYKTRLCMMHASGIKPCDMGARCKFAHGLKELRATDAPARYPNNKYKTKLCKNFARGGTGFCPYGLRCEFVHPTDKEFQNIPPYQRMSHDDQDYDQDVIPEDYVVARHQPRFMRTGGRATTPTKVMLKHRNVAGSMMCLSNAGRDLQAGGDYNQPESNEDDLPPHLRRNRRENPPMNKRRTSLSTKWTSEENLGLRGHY

[9] = biological target: T5, RNA-binding protein pos-1 (Caenorhabditis elegans, UniProt G5EF15); experiment: inhibitors of POS-1/mex-3 RNA binding, dose response, biochemical, fluorescence polarization (AID 1964);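 also: purified POS-1 fused to maltose binding protein made in E. coli; potency of compounds blocking POS-1 binding to fluorescent RNA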
T5 sequence (G5EF15 whole entry): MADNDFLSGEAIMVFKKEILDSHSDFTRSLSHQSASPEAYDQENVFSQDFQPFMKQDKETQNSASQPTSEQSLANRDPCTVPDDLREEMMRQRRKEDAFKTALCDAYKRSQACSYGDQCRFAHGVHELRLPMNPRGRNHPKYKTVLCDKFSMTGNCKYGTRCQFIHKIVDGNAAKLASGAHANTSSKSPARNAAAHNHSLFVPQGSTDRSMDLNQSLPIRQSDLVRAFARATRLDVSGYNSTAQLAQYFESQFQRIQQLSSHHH

Cytochrome P450 1A2 = biological target: T6, Cytochrome P450 1A2 (Homo sapiens, UniProt P05177);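 also: PubChem cytochrome P450 panel assay, CYP1A2 panel member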
T6 sequence (P05177 whole entry): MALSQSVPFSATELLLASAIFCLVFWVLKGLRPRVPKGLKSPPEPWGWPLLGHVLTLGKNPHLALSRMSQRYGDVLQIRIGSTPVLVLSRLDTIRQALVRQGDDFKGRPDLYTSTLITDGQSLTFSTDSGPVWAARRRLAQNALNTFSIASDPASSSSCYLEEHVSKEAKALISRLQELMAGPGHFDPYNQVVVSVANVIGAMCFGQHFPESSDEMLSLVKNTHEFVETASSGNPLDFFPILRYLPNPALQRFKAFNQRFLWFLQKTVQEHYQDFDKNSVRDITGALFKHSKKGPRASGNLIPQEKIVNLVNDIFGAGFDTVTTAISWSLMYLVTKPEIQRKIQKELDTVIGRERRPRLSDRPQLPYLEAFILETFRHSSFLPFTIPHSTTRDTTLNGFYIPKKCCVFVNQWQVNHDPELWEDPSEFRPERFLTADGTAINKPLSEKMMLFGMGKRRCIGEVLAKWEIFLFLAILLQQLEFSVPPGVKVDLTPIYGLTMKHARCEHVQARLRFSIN

Cytochrome P450 2C19 = Cytochrome P450 2C19 (Homo sapiens, UniProt P33261); experiment: Cytochrome panel assay with activity outcomes. Panel member name: p450-cyp2c19 Compounds with AC50 equal or less than 10 uM are considered active; type: functional; settings: read-out: AC50
[10] = biological target: T7, Corticotropin-releasing factor receptor 2/Corticotropin-releasing factor-binding protein (Homo sapiens, UniProt P24387+Q13324); experiment: activators of CRF receptor 2 with binding protein – uHTS hits, confirmation (AID 602473); type: functional; settings: read-out: EC50_Mean
T7 sequence (Q13324 whole entry): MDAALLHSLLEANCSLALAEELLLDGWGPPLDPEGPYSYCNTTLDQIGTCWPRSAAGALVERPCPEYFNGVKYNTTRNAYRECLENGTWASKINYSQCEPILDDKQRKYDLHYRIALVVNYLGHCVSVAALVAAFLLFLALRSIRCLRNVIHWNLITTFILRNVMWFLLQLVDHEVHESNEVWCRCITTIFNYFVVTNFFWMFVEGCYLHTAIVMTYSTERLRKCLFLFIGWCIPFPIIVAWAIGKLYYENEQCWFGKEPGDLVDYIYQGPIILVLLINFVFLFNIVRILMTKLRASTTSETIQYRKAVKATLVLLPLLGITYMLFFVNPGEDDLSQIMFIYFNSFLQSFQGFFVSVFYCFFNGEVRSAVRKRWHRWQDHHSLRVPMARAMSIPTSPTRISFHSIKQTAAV
T7 sequence (P24387 whole entry): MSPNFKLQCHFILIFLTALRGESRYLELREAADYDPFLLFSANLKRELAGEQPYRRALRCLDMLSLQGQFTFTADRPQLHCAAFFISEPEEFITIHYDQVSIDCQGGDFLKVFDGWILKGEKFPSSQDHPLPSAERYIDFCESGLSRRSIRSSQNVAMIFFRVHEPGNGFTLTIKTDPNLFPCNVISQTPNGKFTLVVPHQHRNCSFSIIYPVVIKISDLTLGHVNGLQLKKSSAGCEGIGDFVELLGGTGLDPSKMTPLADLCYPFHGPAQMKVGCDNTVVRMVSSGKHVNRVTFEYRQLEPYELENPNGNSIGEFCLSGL

Cytochrome P450 2D6, sequence (P10635 whole entry): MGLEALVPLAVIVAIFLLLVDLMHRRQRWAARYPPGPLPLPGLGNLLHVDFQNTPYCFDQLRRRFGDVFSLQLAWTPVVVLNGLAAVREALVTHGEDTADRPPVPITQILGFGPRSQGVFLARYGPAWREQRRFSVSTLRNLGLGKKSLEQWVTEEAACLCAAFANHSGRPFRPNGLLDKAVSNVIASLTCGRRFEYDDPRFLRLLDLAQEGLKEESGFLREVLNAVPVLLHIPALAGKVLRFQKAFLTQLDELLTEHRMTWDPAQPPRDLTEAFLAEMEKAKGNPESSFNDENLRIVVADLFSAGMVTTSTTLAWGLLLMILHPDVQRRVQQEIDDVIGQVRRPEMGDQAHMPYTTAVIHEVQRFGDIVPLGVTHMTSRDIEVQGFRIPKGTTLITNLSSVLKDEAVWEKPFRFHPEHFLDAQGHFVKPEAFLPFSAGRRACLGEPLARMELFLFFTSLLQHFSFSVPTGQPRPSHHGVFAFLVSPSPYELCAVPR
Cytochrome P450 2C9, sequence (P11712 whole entry): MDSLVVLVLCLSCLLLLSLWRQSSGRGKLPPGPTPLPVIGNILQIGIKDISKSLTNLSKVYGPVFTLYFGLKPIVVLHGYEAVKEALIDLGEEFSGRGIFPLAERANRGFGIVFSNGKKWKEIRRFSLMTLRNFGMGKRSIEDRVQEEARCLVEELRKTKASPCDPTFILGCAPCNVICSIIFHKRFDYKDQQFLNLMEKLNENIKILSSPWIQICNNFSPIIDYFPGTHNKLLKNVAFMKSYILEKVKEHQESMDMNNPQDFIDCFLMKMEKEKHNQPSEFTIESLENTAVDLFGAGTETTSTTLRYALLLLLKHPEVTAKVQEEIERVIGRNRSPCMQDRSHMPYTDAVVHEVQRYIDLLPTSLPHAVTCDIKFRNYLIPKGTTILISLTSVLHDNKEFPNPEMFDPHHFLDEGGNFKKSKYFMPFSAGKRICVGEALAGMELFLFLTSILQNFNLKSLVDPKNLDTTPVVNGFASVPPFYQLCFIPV
Cytochrome P450 2C19, sequence (P33261 whole entry): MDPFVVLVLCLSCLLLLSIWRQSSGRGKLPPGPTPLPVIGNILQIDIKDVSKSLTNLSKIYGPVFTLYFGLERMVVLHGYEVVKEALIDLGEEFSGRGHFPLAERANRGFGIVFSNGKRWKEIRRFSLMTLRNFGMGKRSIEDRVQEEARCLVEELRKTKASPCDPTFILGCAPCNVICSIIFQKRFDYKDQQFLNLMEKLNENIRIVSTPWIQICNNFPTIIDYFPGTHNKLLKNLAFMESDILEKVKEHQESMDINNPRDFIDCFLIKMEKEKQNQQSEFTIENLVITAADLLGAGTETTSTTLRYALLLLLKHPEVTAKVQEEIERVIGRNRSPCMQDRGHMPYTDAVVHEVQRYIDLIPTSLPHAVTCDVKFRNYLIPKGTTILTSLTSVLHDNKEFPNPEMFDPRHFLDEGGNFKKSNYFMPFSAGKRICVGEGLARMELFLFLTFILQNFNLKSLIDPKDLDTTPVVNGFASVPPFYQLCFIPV
Cytochrome P450 3A4, sequence (P08684 whole entry): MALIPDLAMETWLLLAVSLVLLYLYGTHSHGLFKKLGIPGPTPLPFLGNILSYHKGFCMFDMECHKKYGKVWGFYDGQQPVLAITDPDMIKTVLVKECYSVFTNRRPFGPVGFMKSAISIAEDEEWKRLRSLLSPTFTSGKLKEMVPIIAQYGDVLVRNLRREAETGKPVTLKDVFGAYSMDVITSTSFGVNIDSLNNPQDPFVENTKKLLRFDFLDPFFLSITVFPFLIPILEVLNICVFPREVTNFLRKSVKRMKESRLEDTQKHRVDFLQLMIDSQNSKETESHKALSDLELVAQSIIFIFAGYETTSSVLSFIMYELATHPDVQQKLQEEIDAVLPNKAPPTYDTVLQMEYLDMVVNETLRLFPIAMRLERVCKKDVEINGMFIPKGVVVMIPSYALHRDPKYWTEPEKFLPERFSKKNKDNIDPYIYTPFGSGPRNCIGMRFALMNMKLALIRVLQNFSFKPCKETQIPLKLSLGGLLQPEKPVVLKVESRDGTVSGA

In the case of `CC1=CC(C)(C)N=C(S)N1c1cccc(C)c1`, the AC50 (Cytochrome P450 2C9) was 3.55 µM (inconclusive), the AC50 (Cytochrome P450 2D6) was 6.31 µM (inconclusive) and the AC50 (Cytochrome P450 3A4) was 25.1 µM (inconclusive). The EC50 [1] was > 260 µM (inactive).

With `Clc1ccc(CO/N=C/c2c(-c3ccccc3)nc3n2CCS3)c(Cl)c1` the AC50 [2] was 2.22 µM (active) and the EC50 [1] was > 260 µM (inactive).

In the case of `Cc1ccc(-c2nc(NC(=O)c3ccc(S(=O)(=O)N(CCC#N)CCC#N)cc3)sc2-c2ccccc2)cc1`, the EC50 [3] was 17 µM (active), the EC50 [4] was 2.02 µM (active) and the EC50 [5] was 17.3 µM (active). The EC50 [6] was > 60 µM (not active).

In the case of `COc1cccc(-n2nc(C#N)c(Cl)cc2=O)c1`, the EC50 (Protein RecA) was 4.38 µM (active), the EC50 [1] was 10.7 µM (active) and the AC50 [7] was 2.49 µM (active).

For `CCOC(=O)c1nn(-c2ccc(C)cc2)c2nc(Nc3ccccc3)cc(=O)n12`, the EC50 [8] was > 300 µM (not active) and the EC50 [9] was 78.2 µM (active).

For `CN(C)c1ccc(N/C=C2/C(=O)NC(=O)N(CCC3=CCCCC3)C2=O)cc1`, the EC50 [8] was > 300 µM (not active) and the EC50 [9] was > 300 µM (not active).

In the case of `O=C(OCc1csc(-c2ccccc2)n1)c1cccs1`, the EC50 [1] was > 260 µM (inactive).

For `C=CCn1c(=O)c2ccccc2n2c(SCC(=O)Nc3sc(C)c(CC)c3C(=O)OCC)nnc12`, the EC50 [1] was > 260 µM (inactive).

For `COc1cccc(OCc2ccc(Cl)cc2)c1C#N`, the EC50 [1] was > 260 µM (inactive).

In the case of `CS(=O)(=O)Nc1cccc(C2=NN(C(=O)CCCC(=O)O)C(c3cccs3)C2)c1` (stereo unspecified), the EC50 [1] was > 260 µM (inactive).

With `O=P(Nc1ccccc1)(Nc1ccccc1)Oc1cccc(Cl)c1` the EC50 [3] was 134 µM (active), the EC50 [5] was 239 µM (active) and the AC50 (Cytochrome P450 2D6) was 15.8 µM (inconclusive). For the same compound, the AC50 (Cytochrome P450 1A2) was 15.8 µM (inconclusive).

With `CCOC(=O)C1=C(N)Oc2c(c(O)nc3ccccc23)C1c1ccccc1` (stereo unspecified) the EC50 [3] was 53.5 µM (active) and the EC50 [5] was 94.3 µM (active).

In the case of `FC(F)(F)c1nnc(-c2ccccc2)nc1Sc1ccccc1`, the EC50 (Protein RecA) was 9.56 µM (active), the EC50 [3] was 18.7 µM (active) and the EC50 [5] was 17.3 µM (active). The AC50 (Cytochrome P450 2C19) was 0.00355 µM (inconclusive), the EC50 [1] was 4.22 µM (inconclusive) and the AC50 [7] was 19.3 µM (active).

With `O=C1/C(=C\c2ccc(Br)o2)Cc2ccccc21` the EC50 [1] was 27.6 µM (active).

In the case of `CCOC(=O)C1=NN(C(=O)c2ccccc2)C(O)(c2ccc(C)cc2)C1` (stereo unspecified), the EC50 [10] was 13.5 µM (active) and the EC50 [1] was > 260 µM (inactive).
